Assay results reported in patent US12414958B2, “Medicament and use thereof for treating bacterial infections involving biofilm” (Debiopharm International S.A., priority 2019, dated 2025).

Tested on: ATCC 43300 MRSA strain
Assay: In vivo murine model of catheter associated infection, 24 h and 72 h MRSA biofilms
Parameters: species or system Staphylococcus aureus
Settings: for Log10 CFU/g of catheter (D 6) Mean ± SEM / ΔLog10 CFU/g of catheter from (D 1) Mean ± SEM: 5.5-day treatment (D1-D6); for Log10 CFU/g of catheter (D 6) Mean ± SEM / ΔLog10 CFU/g of catheter from (D 1) Mean ± SEM / Log10 CFU/g of catheter (D 8) Mean ± SEM / ΔLog10 CFU/g of catheter from (D 3) Mean ± SEM: BALB/c mice; for Log10 CFU/g of catheter (D 6) Mean ± SEM / Log10 CFU/g of catheter (D 8) Mean ± SEM: doses as in Table 2; for ΔLog10 CFU/g of catheter from (D 1) Mean ± SEM: change from baseline D 1; for CR (%) cure rate / mean reduction of the initial MRSA load: 5.5-day treatment; for CR (%) cure rate: percentage of mice without catheter-associated bacteria; for Log10 CFU/g of catheter (D 8) Mean ± SEM / ΔLog10 CFU/g of catheter from (D 3) Mean ± SEM: 5.5-day treatment (D3-D8); for ΔLog10 CFU/g of catheter from (D 3) Mean ± SEM: change from baseline D 3; for mean reduction of the initial MRSA load: given as positive reduction
Description: Two experimental settings were used in this study to evaluate the treatment efficacies against early (24h) and/or mature (72h) MRSA catheter formed biofilms. Briefly, mice were anaesthetised by an IP injection of about 120 μl a mix of ketamine (50 mg/kg) and xylazine (10 mg/kg) (4 mL ketamine+2 mL xylazine+10 mL saline). Flank on the right side was shaved and then disinfected by 3 consecutive applications of betadine. A cutaneous and then subcutaneous (SC) incisions of 0.2 cm were made under sterile conditions and a 1 cm segment of polyurethane catheter (Ref. No. ES-04730 Arrow international) cut into 2 longitudinal fragments was inserted SC (into the incision and then pushed further under the skin, about 2 cm away from the incision). The inoculation was done simultaneously by placing 50 μl of the bacterial culture onto the catheter (10^6 CFU of ATCC 43300 MRSA strain). The incision was stitched up and disinfected. The day of the infection was referred to as Day0 (D0). To ensure that the study was conducted in sterile conditions from the start to the end of the experiment, non-infected mice (sentinel group) were included. Treatments started either on D1 or D3 post infection, corresponding to early (24h) or more mature (72h) catheter formed biofilms, respectively, and lasted for 5.5 days (D1-D6) or (D3-D8). In both 24 h and 72h biofilm settings, two groups of infected non-treated animals (Vehicle controls) were evaluated for bacterial counts: at baseline (24h or D1 [for 24-h biofilm] and 72h or D3 [for 72-h biofilm] post infection, i.e. time points corresponding to treatments initiations) and at the termination of treatment duration (D6 [for 24-h biofilm] and D8 [for 72-h biofilm] post infection). Post treatment CFUs were counted on D6 or D8 and results were expressed as Log10 CFU/g of catheter (Mean±SEM). The limit of detection was determined as being 1 Log10 CFU/g of catheter. Changes of CFU/g of catheter (Δ Log10) from the baseline (D1 or D3 for 24-h and 72-h biofilm, respectively) and cure rates (corresponding to the percentage of mice without catheter-associated bacteria within a given treatment group) were also calculated. In vivo induction of antibiotic-resistant bacteria was analysed for all tested antibiotics.
Antibiotics doses were selected according to the effective doses in animals, which approximated the therapeutic human equivalent doses (HED) (Table 1).
Mice received antibiotics on D1, D2, D3, D4, D5 and D6 (only one administration at D6) or D3, D4, D5, D6, D7 and D8 (only one administration at D8). All antibiotics were administered BID IP, except Debio 1450 BES and Vancomycin, which were respectively given PO and SC. Daptomycin was tested as a once daily regimen to avoid tolerability issues. The antibiotics daily dosing was performed with a 10-12 hours interval between the two administrations. For combination therapy, antibiotics were administered simultaneously every 10-12 hours (the time required between the injection of the first antibiotic and the injection of the second antibiotic was less than 30 seconds per mouse).
In each sub-study, animals were randomly assigned to the antibiotic therapies or vehicle controls groups. Dose volumes were calculated according to individual body weight of each animal.
After blood collection, animals were sacrificed by cervical dislocation following anaesthesia. Two fragments of catheter per mouse were collected and were used for bacterial enumeration after sonication. Each fragment of catheter was individually washed under aseptic conditions in an Eppendorf tube (3 successive washing steps with 300 μl sterile saline). After the last wash, the catheter was suspended in 1 mL sterile saline, put in an ultrasonic bath (Advantage Lab) for 3 minutes at room temperature before being vigorously vortexed in order to detach all adherent bacteria from the catheter. Several successive dilutions of this suspension (undiluted, 10-2, […]) were cultured onto Chapman agar plates for 48 h at 37° C. […]

SMILES	Log10 CFU/g of catheter (D 6) Mean ± SEM (Biofilm (24 h))	ΔLog10 CFU/g of catheter from (D 1) Mean ± SEM (Biofilm (24 h))	CR (%) cure rate (Biofilm (24 h)) [%]	Log10 CFU/g of catheter (D 8) Mean ± SEM (Biofilm (72 h))	ΔLog10 CFU/g of catheter from (D 3) Mean ± SEM (Biofilm (72 h))	CR (%) cure rate (Biofilm (72 h)) [%]	mean reduction of the initial MRSA load (24 h biofilm)	mean reduction of the initial MRSA load (72 h biofilm)
CCCCCCCCCC(=O)N[C@@H](Cc1c[nH]c2ccccc12)C(=O)N[C@H](CC(N)=O)C(=O)N[C@@H](CC(=O)O)C(=O)N[C@@H]1C(=O)NCC(=O)N[C@@H](CCCN)C(=O)N[C@@H](CC(=O)O)C(=O)N[C@H](C)C(=O)N[C@@H](CC(=O)O)C(=O)NCC(=O)N[C@H](CO)C(=O)N[C@@H]([C@H](C)CC(=O)O)C(=O)N[C@@H](CC(=O)c2ccccc2N)C(=O)O[C@@H]1C [Daptomycin]	3.02 ± 0.110 Log10 CFU/g of catheter	−3.64 ± 0.110 Log10 CFU/g of catheter	25	5.42 ± 0.104 Log10 CFU/g of catheter	−1.37 ± 0.104 Log10 CFU/g of catheter	0		
Cc1c(CN(C)C(=O)/C=C/c2cnc3c(c2)CCC(=O)N3COP(=O)(O)O)oc2ccccc12 [Debio 1450, {6-[(1E)-3-{methyl [(3-methyl-1-benzofuran-2-yl)methyl]amino}-3-oxoprop-1-en-1-yl]-2-oxo-3,4-dihydro-1,8-naphthyridin-1 (2H)-yl} methyl dihydrogen phosphate]	4.31 ± 0.109 Log10 CFU/g of catheter	−2.35 ± 0.109 Log10 CFU/g of catheter	8	5.75 ± 0.069 Log10 CFU/g of catheter	−1.03 ± 0.069 Log10 CFU/g of catheter	0		
CO[C@H]1/C=C/O[C@@]2(C)Oc3c(C)c(O)c4c(O)c(c(/C=N/N5CCN(C)CC5)c(O)c4c3C2=O)NC(=O)/C(C)=C\C=C\[C@H](C)[C@H](O)[C@@H](C)[C@@H](O)[C@@H](C)[C@H](OC(C)=O)[C@@H]1C [Rifampicin]	2.50 ± 0.072 Log10 CFU/g of catheter	−4.17 ± 0.072 Log10 CFU/g of catheter	39	3.80 ± 0.113 Log10 CFU/g of catheter	−2.98 ± 0.113 Log10 CFU/g of catheter	8	4.17±0.072 Log10 CFU/g of catheter	2.98±0.113 Log10 CFU/g of catheter
